The values below come from patent US20240025910A1, “BRAIN-MIGRATING TUMOR THERAPEUTIC AGENT CONTAINING FUSED PYRIMIDINE COMPOUND AS ACTIVE INGREDIENT” (TAIHO PHARMACEUTICAL CO., LTD., priority 2020, published 2024).

Usually Kp stands for the ratio of the level in a tissue or fluid to that in plasma or blood.

Data set [1] in a line: Evaluation of brain penetration property (Kp, Kp,uu) after single oral dose. Type of data set: in vivo. Conditions: BALB/cAJcl-nu/nu; for Kp at 1 h: mouse, ratio of compound concentrations in brain/plasma, mice, 1 hour after administration, Kp of 0.1 or more judged brain penetrable; for Kp uu at 1 h: ratio of unbound compound concentrations in brain/plasma, using mouse plasma and brain protein unbound ratios of Test Example 1, mice, 0.3 or more judged excellent. Here is the method:
Compounds shown in Tables 1 to 4 were added to mouse plasma at a final concentration of 1 μmol/L. The resultant compound-added mouse plasma was added to the donor side of an equilibrium dialysis device (HTDialysis) in which an equilibrium dialysis membrane was set. An equal amount of PBS was added to the receiver side of the device, and after incubation in a 10% CO2 incubator for 6 hours, the compounds on the donor side and the receiver side were detected with the LC-MS/MS. The unbound ratio of each compound to plasma protein was calculated from the ratio of the compound peak area of the receiver side to that of the donor side.
The unbound ratio of each compound to brain protein was calculated in the same manner as above except that: the compound was added to a mouse brain homogenate instead of the mouse plasma; and a dilution ratio was taken into consideration in the calculation of the unbound ratio. In this case, the mouse brain homogenate was obtained by adding a 3-fold amount of PBS to the mouse brain, and then homogenizing the mixture through use of an ultrasonic homogenizer.
The compounds shown in Tables 1 to 4 were dissolved or suspended in 0.5% HPMC, 0.1N hydrochloric acid, and orally administered in a single dose to BALB/cAJcl-nu/nu mice (CLEA Japan, Inc.) untreated, or subcutaneously implanted with TT cells, or subcutaneously implanted with the BaF3/KIF5B-RET_RFP cell line. […] Thus, blood and brain samples were obtained. The obtained blood sample was centrifuged to obtain a plasma sample. A 3-fold amount of water was added to the obtained brain sample, and then the mixture was homogenized through use of an ultrasonic homogenizer to obtain a brain homogenate.
Compound concentrations in the obtained plasma and in the brain homogenate were measured with the LC-MS/MS, and the compound concentration in the brain homogenate was multiplied by a factor of 4 to calculate a compound concentration in the brain. A Kp value was calculated from the ratio of the compound concentrations in the brain/plasma. Unbound compound concentrations in the plasma and in the brain were calculated from the plasma protein unbound ratio and brain protein unbound ratio of each compound determined in Test Example 1, and a Kp,uu value was calculated from the ratio of the unbound compound concentrations in the brain/plasma. A brain penetration property was evaluated on the basis of the calculated Kp value and Kp,uu value (Tables 1 to 4). Specifically, a compound showing a Kp value of 0.1 or more was judged to have a brain penetration property, and a compound showing a Kp,uu value of 0.3 or more was judged to have an excellent brain penetration property (Varadharajan, S., et al. (2015) J Pharm Sci 104, 1197-1206). In Table 4, “N/A” in the column “Kp,uu value” means that the value was unmeasured.

Data set [2] deals with NIH/3T3_CCDC6-RET cells implanted in the brain. In words: Evaluation of drug efficacy in brain tumor implantation model. Conditions: oral 50 mg/kg/day, twice a day for 16 consecutive days from Day 5; NIH/3T3_CCDC6-RET brain implant, nude mice. Format: in vivo, nude mice (BALB/cAJcl-nu/nu).
Experimental: Antitumor evaluation was performed in models with tumors implanted in the brain.
The growth inhibitory effect was confirmed by using NIH/3T3 cells (NIH/3T3_CCDC6-RET cells) in which luciferase and CCDC6-RET fusion protein were forced to be expressed for gene transfer. Six-week-old male nude mice (BALB/cAJcl-nu/nu, CLEA Japan, Inc.) were fixed on a brain stereotaxic instrument, and 2.5×10^4 cells per mice were implanted at a site 0.5 mm anteriorly from the bregma, 2 to 2.2 mm to the right and 3.5 mm deep. The day of implantation was defined as Day 0, luciferin (150 mg/kg) was administered intraperitoneally on Day 4, and intensity of luminescence (photons/sec) was measured using an IVIS Imaging System (Lumina II, PerkinElmer).
From the next day (Day 5), compounds were administered twice a day for 16 consecutive days. Each compound was suspended in 0.5% HPMC/0.1N hydrochloric acid and administered orally at 50 mg/kg/day. To confirm tumor growth, intensity of luminescence was measured at intervals of 3 or 4 days by the method described above.
However, since a humane endpoint due to tumor growth was applied to the drug non-administration group (control group), statistical evaluation was performed by Dunnett's test using the measurement value on Day 14.

`COCc1ccc(NC(=O)c2c(C#CCN3CCCC3)n(C3(C)CC3)c3ncnc(N)c23)cc1` [Example 12, 4-amino-N-[4-(methoxymethyl)phenyl]-7-(1-methylcyclopropyl)-6-(3-(pyrrolidin-1-yl)prop-1-yn-1-yl)-7H-pyrrolo[2,3-d]pyrimidine-5-carboxamide]: in data set [1], the Kp at 1 h worked out at 1.02 and the Kp uu at 1 h came out at 1.45.
The matching figures for `COCc1ccc(NC(=O)c2c(C#Cc3ccc(N)nc3)n(C3(C)CC3)c3ncnc(N)c23)cc1` [Example 17, 4-amino-6-[(6-aminopyridin-3-yl)ethynyl]-N-[4-(methoxymethyl)phenyl]-7-(1-methylcyclopropyl)-7H-pyrrolo[2,3-d]pyrimidine-5-carboxamide]: 0.129 and 0.052.
Take `COCc1ccc(NC(=O)c2c(C#Cc3cnn(C)c3)n(C3(C)CC3)c3ncnc(N)c23)cc1` [Example 4, 4-amino-N-[4-(methoxymethyl)phenyl]-6-((1-methyl-1H-pyrazol-4-yl)ethynyl)-7-(1-methylcyclopropyl)-7H-pyrrolo[2,3-d]pyrimidine-5-carboxamide]: in data set [1], the Kp at 1 h came to 1.44 and the Kp uu at 1 h came to 1.2.
As to `COCc1ccc(NC(=O)c2c(C#CCN3CCCCC3)n(C3(C)CC3)c3ncnc(N)c23)cc1` [Example 11, 4-amino-N-[4-(methoxymethyl)phenyl]-7-(1-methylcyclopropyl)-6-(3-(piperidin-1-yl)prop-1-yn-1-yl)-7H-pyrrolo[2,3-d]pyrimidine-5-carboxamide], the Kp at 1 h in data set [1] was 1.36.
On to `Cc1cc(NC(=O)c2cn(C3(C)CC3)c3ncnc(N)c23)n[nH]1` [compound 2, reference compound], for which, in data set [1], the Kp at 1 h worked out at 0.022 and the Kp uu at 1 h turned out to be 0.005.
The like results for `CCOc1c(C(=O)Nc2ccc(COC)cc2)c2c(N)ncnc2n1C1(C)CC1` [Example 9, 4-amino-6-ethoxy-N-[4-(methoxymethyl)phenyl]-7-(1-methylcyclopropyl)-7H-pyrrolo[2,3-d]pyrimidine-5-carboxamide] were, in that order, 2.12 and 0.914.
The matching figures for `COCc1ccc(NC(=O)c2c(OC[C@H]3CCCO3)n(C3(C)CC3)c3ncnc(N)c23)cc1` [Example 7, (R)-4-amino-N-[4-(methoxymethyl)phenyl]-7-(1-methylcyclopropyl)-6-((tetrahydrofuran-2-yl)methoxy)-7H-pyrrolo[2,3-d]pyrimidine-5-carboxamide]: 1.63 and 0.608.
Consider `Cc1cc(NC(=O)c2cn(C(C)(C)C)c3ncnc(N)c23)n[nH]1` [compound 1, reference compound], for which the Kp at 1 h in data set [1] worked out at 0.056.
Consider `COCc1ccc(NC(=O)c2c(C#Cc3cccnc3)n(C3(C)CC3)c3ncnc(N)c23)cc1` [Example 16, 4-amino-N-[4-(methoxymethyl)phenyl]-7-(1-methylcyclopropyl)-6-(pyridin-3-ylethynyl)-7H-pyrrolo[2,3-d]pyrimidine-5-carboxamide], for which, in data set [1], the Kp at 1 h was determined as 1.09 and the Kp uu at 1 h turned out to be 0.653.
With `COCc1ccc(NC(=O)c2cn(C3(C)CC3)c3ncnc(N)c23)cc1` [Example 8, 4-amino-N-[4-(methoxymethyl)phenyl]-7-(1-methylcyclopropyl)-7H-pyrrolo[2,3-d]pyrimidine-5-carboxamide], in data set [1], the Kp at 1 h is 0.175 and the Kp uu at 1 h is 0.1.
The matching figures for `CC#Cc1c(C(=O)Nc2ccc(COC)cc2)c2c(N)ncnc2n1C1(C)CC1` [Example 5, 4-amino-N-[4-(methoxymethyl)phenyl]-7-(1-methylcyclopropyl)-6-(prop-1-yn-1-yl)-7H-pyrrolo[2,3-d]pyrimidine-5-carboxamide]: 1.56 and 0.681.
As for `COCc1ccc(NC(=O)c2c(C#CC3CCN(C)CC3)n(C3(C)CC3)c3ncnc(N)c23)cc1` [Example 3, 4-amino-N-[4-(methoxymethyl)phenyl]-7-(1-methylcyclopropyl)-6-[(1-methylpiperidin-4-yl)ethynyl]-7H-pyrrolo[2,3-d]pyrimidine-5-carboxamide], in data set [1], the Kp at 1 h is 0.772 and the Kp uu at 1 h worked out at 0.22.
The like results for `COCc1ccc(NC(=O)c2c(C#Cc3cn(C)nc3C)n(C3(C)CC3)c3ncnc(N)c23)cc1` [Example 1, 4-amino-6-[2-(1,3-dimethyl-1H-pyrazol-4-yl)ethynyl]-N-[4-(methoxymethyl)phenyl]-7-(1-methylcyclopropyl)-7H-pyrrolo[2,3-d]pyrimidine-5-carboxamide] were, in that order, 0.425 and 0.425.
The like results for `COCc1ccc(NC(=O)c2c(C#CCN(C)C)n(C3(C)CC3)c3ncnc(N)c23)cc1` [Example 6, 4-amino-6-[3-(dimethylamino)prop-1-yn-1-yl]-N-[4-(methoxymethyl)phenyl]-7-(1-methylcyclopropyl)-7H-pyrrolo[2,3-d]pyrimidine-5-carboxamide] were, in that order, 0.969 and 0.922.
Turning to `COCc1ccc(NC(=O)c2c(C#CCN3CCSCC3)n(C3(C)CC3)c3ncnc(N)c23)cc1` [Example 18, 4-amino-N-[4-(methoxymethyl)phenyl]-7-(1-methylcyclopropyl)-6-(3-thiomorpholinoprop-1-yn-1-yl)-7H-pyrrolo[2,3-d]pyrimidine-5-carboxamide], in data set [1], the Kp at 1 h stood at 0.685 and the Kp uu at 1 h is 0.443.
The matching figures for `COCc1ccc(NC(=O)c2c(C#CC3CCOCC3)n(C3(C)CC3)c3ncnc(N)c23)cc1` [Example 13, 4-amino-N-[4-(methoxymethyl)phenyl]-7-(1-methylcyclopropyl)-6-((tetrahydro-2H-pyran-4-yl)ethynyl)-7H-pyrrolo[2,3-d]pyrimidine-5-carboxamide]: 2.08 and 0.891.
The like results for `COCc1ccc(NC(=O)c2c(C#CCC3CCOCC3)n(C3(C)CC3)c3ncnc(N)c23)cc1` [Example 15, 4-amino-N-[4-(methoxymethyl)phenyl]-7-(1-methylcyclopropyl)-6-[3-(tetrahydro-2H-pyran-4-yl)prop-1-yn-1-yl]-7H-pyrrolo[2,3-d]pyrimidine-5-carboxamide] were, in that order, 0.74 and 0.37.
The matching figures for `COCc1ccc(NC(=O)c2c(C#Cc3cncn3C)n(C3(C)CC3)c3ncnc(N)c23)cc1` [Example 10, 4-amino-N-(4-(methoxymethyl)phenyl)-6-((1-methyl-1H-imidazol-5-yl)ethynyl)-7-(1-methylcyclopropyl)-7H-pyrrolo[2,3-d]pyrimidine-5-carboxamide]: 0.143 and 0.056.
For the compound `Cc1cc(NC(=O)c2c(C#Cc3cnn(C)c3)n(C3(C)CC3)c3ncnc(N)c23)[nH]n1` [compound 3, reference compound], the Kp at 1 h in data set [1] came to 0.076.
On to `COCc1ccc(NC(=O)c2c(C#CCC(C)(C)O)n(C3(C)CC3)c3ncnc(N)c23)cc1` [Example 14, 4-amino-6-(4-hydroxy-4-methylpent-1-yn-1-yl)-N-[4-(methoxymethyl)phenyl]-7-(1-methylcyclopropyl)-7H-pyrrolo[2,3-d]pyrimidine-5-carboxamide], for which, in data set [1], the Kp at 1 h is 0.352 and the Kp uu at 1 h was 0.242.
Regarding `COCc1ccc(NC(=O)c2c(C#CCN3CCOCC3)n(C3(C)CC3)c3ncnc(N)c23)cc1` [Example 2, 4-amino-N-[4-(methoxymethyl)phenyl]-7-(1-methylcyclopropyl)-6-(3-morpholinoprop-1-yn-1-yl)-7H-pyrrolo[2,3-d]pyrimidine-5-carboxamide], in data set [2], the “inhibitory effect on growth of tumors implanted in the brain (intensity of luminescence)” value was “inhibitory effect on the growth of the implanted tumors”. In data set [1], the Kp at 1 h was determined as 1.71 and the Kp uu at 1 h was 1.8.
